Experimental data published in patent US8067616B2 (Nereus Pharmaceuticals, Inc., priority 2006, dated 2011).

Key:
[1] = test system: chymotrypsin-like activity of the 20S proteasome in RPMI 8226 cells; experiment: Chymotrypsin-like activity of proteasomes in RPMI 8226 cells after 1 hr exposure, measured in cell lysates (Suc-LLVY-AMC); format: cell-based, human; conditions: for % inhibition of the 20S proteasome chymotrypsin-like activity in RPMI 8826 cells: 1 hr incubation
Method: RPMI 8226 (ATCC, CCL-155), the human multiple myeloma cell line, was cultured in RPMI 1640 medium supplemented with 2 mM L-Glutamine, 1% Penicillin/Streptomycin, 10 mM HEPES and 10% Fetal Bovine Serum at 37° C., 5% CO2 and 95% humidified air. To evaluate the inhibitory effects on the chymotrypsin-like activity of the 20S proteasome, test compounds prepared in DMSO were appropriately diluted in culture medium and added to 1×10^6/ml RMPI 8226 cells at final concentration of 1, 5 or 10 nM. DMSO was used as the vehicle control at a final concentration of 0.1%. Following 1 hr incubation of RMPI 8226 cells with the compounds, the cells were pelleted by centrifugation at 2,000 rpm for 10 sec at room temperature and washed 3× with ice-cold 1× Dubach's Phosphate-Buffered Saline (DPBS, Mediatech, Herndon, Va.). DPBS washed cells were lysed on ice for 15 min in lysis buffer (20 mM HEPES, 0.5 mM EDTA, 0.05% Triton X-100, pH 7.3) supplemented with protease inhibitor cocktail (Roche Diagnostics, Indianapolis, Ind.). Cell debris was pelleted by centrifugation at 14,000 rpm for 10 min, 4° C. and supernatants (=cell lysates) were transferred to a new tube. Protein concentration was determined by the BCA protein assay kit (Pierce Biotechnology, Rockford, Ill.). […] The reactions were initiated by the addition of 10 μL of 0.4 mM Suc-LLVY-AMC (prepared by diluting a 10 mM solution of the peptide in DMSO 1:25 with assay buffer) to 190 μL of the cell lysates in 96-well Costar microtiter plate and incubated in the Thermo Lab Systems Fluoroskan plate reader at 37° C. Fluorescence of the cleaved peptide substrate was measured at λex=390 nm and λem=460 nm. All data were collected every five minutes for 2 hour. The total protein used for each assay was 20 μg. The final concentration of Suc-LLVY-AMC and DMSO was 20 μM and 0.2%, respectively. After subtraction of the background (the values from wells containing buffer and substrate in the absence of cell lysate), the activity of test compound was expressed as % inhibition as normalized to the proteasome activity observed in the DMSO treated control cells.

[2] = biological target: caspase-like activity of purified rabbit 20S proteasomes (Oryctolagus cuniculus, UniProt G1T235); experiment: In vitro inhibition of caspase-like activity of purified rabbit muscle 20S proteasome (Z-LLE-AMC); format: biochemical; conditions: IC50 Values, purified rabbit 20S proteasome

For C[C@@]12OC(=O)[C@]1([C@@H](O)[C@@H]1C=CCCC1)NC(=O)[C@@H]2CCCl [XVI-1A, Salinosporamide A], the “% inhibition of the 20S proteasome chymotrypsin-like activity in RPMI 8826 cells” value (“% inhibition” below) ([1]; fermentation XVI-1A, 1 nM) was 38%, the “% inhibition” value ([1]; fermentation XVI-1A, 5 nM) was 86% and the “% inhibition” value ([1]; fermentation XVI-1A, 10 nM) was 97%. The “inhibition of the 20S proteasome chymotrypsin-like activity on exposure of RPMI 8226 cells” value ([1]; fermentation or synthetic XVI-1A, 1, 5 or 10 nM) was “dose-dependent inhibition”, the “% inhibition” value ([1]; synthetic XVI-1A, 1 nM) was 32% and the “% inhibition” value ([1]; synthetic XVI-1A, 5 nM) was 79%. The “% inhibition” value ([1]; synthetic XVI-1A, 10 nM) was 96%, the IC50 ([2]; XVI-1A obtained by fermentation) was 387 nM and the IC50 ([2]; XVI-1A obtained synthetically) was 467 nM.
